The results in this text go back to article PMC8752837, “Structural basis of BAK activation in mitochondrial apoptosis initiation” (Nature Communications, 2022).

This test addresses T1, WT tevBAK (Homo sapiens, UniProt Q16611).
T1 construct: To generate tevBAK (residues 22–186), we cleaved off the histidine tag with TEV protease; His tag (vector pNIC28-Bsa4) (N, cleaved yes); made in house; host or cells: E. coli T7 Express pLac I/Y
T1 sequence (Q16611 22-186): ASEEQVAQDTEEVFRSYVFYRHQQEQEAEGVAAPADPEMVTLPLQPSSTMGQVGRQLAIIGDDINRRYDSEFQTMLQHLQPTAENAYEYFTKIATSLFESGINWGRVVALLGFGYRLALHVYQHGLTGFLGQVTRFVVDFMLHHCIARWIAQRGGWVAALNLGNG
Kind of test: Isothermal titration calorimetry. In kind it is binding. As to conditions: 25 °C; single site binding model. On the procedure:
Protein samples were exchanged into 20 mM HEPES, 100 mM NaCl and 1 mM TCEP prior to the experiment. Titrations were performed by first injecting 0.5 μl of 250 or 500 µM BID BH3 peptides into a solution of 20 or 50 µM BAK followed by additional 2 μl injections. […] Results were analyzed using Origin software (OriginLab) provided by MicroCal. Binding constants (KD) and thermodynamic parameters were calculated from the average of two or three individual titrations by fitting the data to a single site binding model using a nonlinear least-squares fitting algorithm.

On to `CC[C@H](C)[C@H](NC(=O)[C@H](CO)NC(=O)[C@H](CCCNC(=N)N)NC(=O)[C@H](CC(=O)O)NC(=O)[C@H](CCSC)NC(=O)[C@H](CO)NC(=O)[C@H](CC(=O)O)NC(=O)CNC(=O)[C@@H](NC(=O)[C@H](CCC(N)=O)NC(=O)[C@H](C)NC(=O)[C@H](CC(C)C)NC(=O)[C@H](Cc1c[nH]cn1)NC(=O)[C@H](CCCNC(=N)N)NC(=O)[C@H](C)NC(=O)[C@@H](NC(=O)[C@H](CC(N)=O)NC(=O)[C@H](CCCNC(=N)N)NC(=O)[C@@H](NC(=O)[C@@H](NC(=O)[C@H](CC(=O)O)NC(=O)[C@H](CCC(=O)O)NC(C)=O)[C@@H](C)CC)[C@@H](C)CC)[C@@H](C)CC)C(C)C)C(N)=O` [WT BID BH3, reference compound], for which the “ITC -T∆S” value was 0.41 ± 0.11 kcal/mol, the “ITC ∆G” value was -6.34 ± 0.04 kcal/mol and the “ITC ∆H” value is -6.75 ± 0.07 kcal/mol.
